Earlier results as cited in patent US3931141A, “Novel heptapeptides having gastrin activity” (Hoechst Aktiengesellschaft, priority 1972, dated 1976).

System: stomach
Conditions: The Lancet 1966, page 933

Boc--β--Ala--Trp--Met--Asp--Phe--NH2 [formula IV]
stimulating action (acid production and quantity secreted) compared with other synthetic peptides: strongest stimulating action
